Source: patent publication US8399689B2, “Chrysophaentin antimicrobial compounds that inhibit FtsZ protein” (The United States of America, as represented by the …, priority 2010, dated 2013)
In brackets after ≈: the same amount, converted by molar mass. Entries after “also recorded” stand apart in the source; their conditions may differ.

How the values were obtained:
[1] = tested on: vancomycin-resistant E. Faecium (VRE, ATCC 700221); test: Microbroth dilution assay, VREF; assay type: cell-based, Enterococcus faecium; details: microbroth dilution, concentration at which growth is reduced by 50%
Protocol: (§1) Compounds 1-8 were tested for antimicrobial activity against Staphylococcus aureus (SA, ATCC 25923), methicillin-resistant S. aureus (MRSA, ATCC BAA-41), multidrug-resistant S. aureus (MDRSA, ATCC BAA-44), Enterococcus faecium (EF, ATCC 49032), vancomycin-resistant E. Faecium (VRE, ATCC 700221), and Bacillus subtilis (ATCC 49343) using a modified disk diffusion assay and microbroth liquid dilution assays. For disk diffusion assays, agar plates seeded with suspensions of bacteria were prepared by adding 500 μL of a 24 h culture of bacteria to 100 mL of autoclaved Mueller Hinton II agar and cooled to 55° C. Seeded liquid agar (10 mL) was transferred immediately to square Petri dishes and allowed to cool for 1 h. Control drugs used for each microorganism included kanamycin (50 μg) for S. aureus, and nitrofurantoin (25 μg) for MRSA. Following incubation at 37° C. for 18 h, zones of inhibition were measured. MICso values for compounds 1 and 4-8 were determined using a microbroth dilution assay outlined in the Clinical and Laboratory Standards Institute methods for susceptibility tests for bacteria that grow aerobically. Briefly, single bacterial colonies were used to inoculate 4 mL of Trypticase Soy broth (BD) for overnight growth and inoculum for each were diluted to 5×10^5 CFU/mL using the 0.5 McFarland standard. In a 96 well plate (Costar, round bottom), control antibiotics (oxacillin for SA and MRSA, vancomycin for EF and VRE, chloramphenicol for B. subtilis) or natural product inhibitors were added to Muller Hinton II broth (for S. aureus, MRSA, and B. subtilis) or 10% brain heart infusion broth (for E. faecium and VRE) in the first column of the well plates, and serially diluted across the plate, reserving wells for a positive growth control (no treatment). 10 μL of diluted bacteria were added to all wells with the exception of those kept for broth blanks (MHII or brain heart infusion broth only). Plates were incubated at 37° C. overnight and read at absorbance 600 nm on a Molecular Devices plate reader. Growth curves were plotted and ICso values obtained using Kalidagraph software.

[2] = tested on: methicillin-resistant S. aureus (MRSA, ATCC BAA-41); test: Agar disk diffusion assay, MRSA; assay type: cell-based, Staphylococcus aureus
Protocol: as §1

[3] = tested on: murine leukemia cell line P388; test: Cytotoxicity, P388; assay type: cell-based; details: did not inhibit growth at concentrations as high as
[4] = tested on: Enterococcus faecium (EF, ATCC 49032); test: Microbroth dilution assay, E. faecium; assay type: cell-based; details: concentration at which growth is reduced by 50%
Protocol: as §1

[5] = tested on: Gram-positive pathogens (S. aureus, B. subtilis, E. faecium, MRSA, MDRSA, VREF); test: Disk diffusion and microbroth dilution assays, strains taken together; assay type: cell-based
Excerpt: Solid agar disk diffusion and microbroth dilution assays were used to evaluate the antimicrobial activities of compounds 1, hexaacetate 1a, and 4-8 toward clinically relevant, Gram-positive pathogens, including the drug-susceptible bacteria Staphylococcus aureus, Bacillus subtilis and Enterococcus faecium, and drug-resistant strains methicillin-resistant S. aureus (MRSA), multidrug-resistant S. aureus (MDRSA), and vancomycin-resistant E. faecium (VREF) (see Table 7, Example 2).
as §1, with “In a 96 well plate (Costar, round bottom), control antibiotics (oxacillin for SA and MRSA, vancomycin for EF and VRE, chloramphenicol for B. subtilis) or natural product inhibitors were added to Muller Hinton II broth (for S. aureus, MRSA, and B. subtilis) or 10% brain heart infusion broth (for E. faecium and VRE) in the first column of the well plates, and serially diluted across the plate, reserving wells for a positive growth control (no treatment). 10 μL of diluted bacteria were added to all wells with the exception of those kept for broth blanks (MHII or brain heart infusion broth only).” left out, “Growth curves were plotted and ICso values obtained using Kalidagraph software.” left out

[6] = tested on: human colon tumor cell line HCT-116; test: Cytotoxicity, HCT-116; assay type: cell-based; details: did not inhibit growth at concentrations as high as
recombinant E. coli FtsZ [7] = target: T1, recombinant E. coli FtsZ (Escherichia coli, UniProt P0A9A6); test: Saturation Transfer Difference (STD) NMR binding to FtsZ
T1 sequence (P0A9A6 whole entry): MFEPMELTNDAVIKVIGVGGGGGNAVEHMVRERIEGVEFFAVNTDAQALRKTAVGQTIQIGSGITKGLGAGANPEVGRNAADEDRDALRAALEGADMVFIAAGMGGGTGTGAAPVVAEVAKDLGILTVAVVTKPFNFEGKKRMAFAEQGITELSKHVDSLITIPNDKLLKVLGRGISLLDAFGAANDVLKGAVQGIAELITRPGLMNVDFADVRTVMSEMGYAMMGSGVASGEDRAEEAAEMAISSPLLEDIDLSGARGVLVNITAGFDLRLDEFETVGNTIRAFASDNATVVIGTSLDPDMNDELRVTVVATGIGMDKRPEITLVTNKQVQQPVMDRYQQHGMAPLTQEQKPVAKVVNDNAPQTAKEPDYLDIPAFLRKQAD
Protocol: Saturation transfer difference (STD) NMR experiments were recorded with the carrier set at −1 or 12 ppm for on-resonance irradiation and at 40 ppm for off-resonance irradiation. […] Selective protein saturation (2 s) was accomplished by using a train of 50 ms Gauss-shaped pulses, each separated by a 1 ms delay, at an experimentally determined optimal power (49 dB on our probe); a T1ρ filter (30 ms) was incorporated to suppress protein resonances. Experiments were recorded using a minimum of 1024 scans and 32K points. On- and off-resonance spectra were processed independently, and subtracted to provide a difference spectrum.
Saturation Transfer Difference (STD) NMR is an NMR technique that provides atomic level detail of the epitope used by a small molecule ligand to bind its macromolecular (protein) receptor. […] Spectra of were recorded at 298 K with the carrier set at −1 or 12 ppm for on-resonance irradiation and 50 ppm for off-resonance irradiation. Selective protein saturation (duration ranging from 1 to 5 s) was accomplished using a train of 50 ms Gauss-shaped pulses, each separated by a 1 ms delay, at an experimentally determined optimal power (49 dB); a T1ρ filter (30 ms) was incorporated to suppress protein resonances. A minimum of 512 scans and 4000 points were used to ensure high quality data with good signal-to-noise. On- and off-resonance spectra were processed independently, and subtracted to provide a difference spectrum. […] STD enhancements were measured by integrating difference spectra where the peaks showing the strongest enhancements relative to the control spectra were used to normalize all non-overlapped peaks in the difference spectra.

[8] = tested on: Staphylococcus aureus (SA, ATCC 25923); test: Agar disk diffusion assay, S. aureus; assay type: cell-based
Protocol: as §1

[9] = tested on: multidrug-resistant S. aureus (MDRSA, ATCC BAA-44); test: Microbroth dilution assay, MDRSA; assay type: cell-based; details: Staphylococcus aureus, ATCCBAA44
Protocol: (§2) Compounds 1-8 were tested for antimicrobial activity against Staphylococcus aureus (SA, ATCC 25923), methicillin-resistant S. aureus (MRSA, ATCC BAA-41), multidrug-resistant S. aureus (MDRSA, ATCC BAA-44), Enterococcus faecium (EF, ATCC 49032), vancomycin-resistant E. Faecium (VRE, ATCC 700221), and Bacillus subtilis (ATCC 49343) using a modified disk diffusion assay and microbroth liquid dilution assays. For disk diffusion assays, agar plates seeded with suspensions of bacteria were prepared by adding 500 μL of a 24 h culture of bacteria to 100 mL of autoclaved Mueller Hinton II agar and cooled to 55° C. Seeded liquid agar (10 mL) was transferred immediately to square Petri dishes and allowed to cool for 1 h. Control drugs used for each microorganism included kanamycin (50 μg) for S. aureus, and nitrofurantoin (25 μg) for MRSA. Following incubation at 37° C. for 18 h, zones of inhibition were measured. MICso values for compounds 1 and 4-8 were determined using a microbroth dilution assay outlined in the Clinical and Laboratory Standards Institute methods for susceptibility tests for bacteria that grow aerobically. […] Plates were incubated at 37° C. overnight and read at absorbance 600 nm on a Molecular Devices plate reader. […]

[10] = tested on: Bacillus subtilis (ATCC 49343); test: Microbroth dilution assay, B. subtilis; assay type: cell-based; details: ATCC49343
Protocol: as §2

GTP binding site of FtsZ = GTP binding site of FtsZ (Escherichia coli, UniProt P0A9A6); test: Competition STD NMR with GTPγS; design: species or system E. coli; details: for mode of binding relative to GTP/GTPγS: GTPγS titration 0.5-3.0 equivalents
GTP binding site of FtsZ, sequence (P0A9A6 whole entry): as above

recombinant E. coli FtsZ [11] = target: T1, recombinant E. coli FtsZ; test: FtsZ polymerization assay by transmission electron microscopy; details: 50 μM compound, 6 μM FtsZ, GTP 1 mM
Protocol: Protofilament formation of E. coli FtsZ was assessed by polymerization assays. […] Following an additional 5 minutes incubation period at room temperature, aliquots (5 μL) were adsorbed onto carbon films on lacey carbon supports on 400-mesh copper grids, rinsed with H2O, and exposed to 3% uranyl acetate for 5 minutes for negative staining. Images were acquired with an FEI Morgani transmission electron microscope, operating at 80 kV, and equipped with an AMT Advantage camera at 44,000× magnification.

[12] = tested on: Enterococcus faecium (EF, ATCC 49032); test: Agar disk diffusion assay, E. faecium; assay type: cell-based
Protocol: as §1

[13] = Lowest concentrations leading to 8-10 mm zones of inhibition
[14] = 100-fold excess of compound over FtsZ

Oc1cc(O)c2c(c1)C/C(Cl)=C\Cc1cc(c(Cl)cc1O)Oc1c(O)cc(cc1O)C/C(Cl)=C\Cc1cc(c(Cl)cc1O)O2 [Compound 1, chrysophaentin 1]
MIC50 ([1]; Enterococcus faecium, read-out: MIC50 (μg/mL) VREF): 2.9 ± 0.8 µg/mL (≈ 4.28 µM) | MIC50 (μg/mL) VREF [1]: 2.8 ± 0.8 µg/mL (≈ 4.13 µM) | MIC50 (μg/mL) VREF ([1]; listed as Chrysophaentin 1): 2.8 ± 0.8 µg/mL (≈ 4.13 µM) | Agar disk diffusion (μg/disk) MRSA [2, 13]: 2 μg/disk | zone of inhibition at 2 µg/disc ([2]; Staphylococcus aureus, at 2 μg/disk): 10 mm | concentration without growth inhibition, P388 [3]: > 50 µg/mL | MIC50 ([4]; Enterococcus faecium, ATCC49032, microbroth dilution, read-out: MIC50 (μg/mL) E. faecium): 3.8 ± 1.9 µg/mL (≈ 5.6 µM) | MIC50 (μg/mL) E. faecium ([4]; microbroth dilution): 3.5 ± 1.8 µg/mL (≈ 5.16 µM) | potency relative to chrysophaentin 6 [5]: 3-5 times | concentration without growth inhibition, HCT-116 [6]: > 50 µg/mL | STD NMR combined enhancement, overlapped protons H-6′ and H-8 (recombinant E. coli FtsZ [7]; [14]): ~50% | STD NMR enhancement, proton H-3 (recombinant E. coli FtsZ [7]; [14]): 100% | STD NMR enhancement, proton H-3′ (recombinant E. coli FtsZ [7]; [14]): 98% | STD NMR enhancement, proton H-12 (recombinant E. coli FtsZ [7]; [14]): 100% | STD NMR enhancement, proton H-14 (recombinant E. coli FtsZ [7]; [14]): 100% | STD NMR enhancement, aromatic protons H-6 and H-6′ (recombinant E. coli FtsZ [7]; as restated with the docked model): ~50% | Agar disk diffusion (μg/disk) S. aureus [8, 13]: 2 μg/disk | zone of inhibition at 2 µg/disc ([8]; Staphylococcus aureus, ATCC25923, at 2 μg/disk): 10 mm | MIC50 [9]: 1.3 ± 0.4 µg/mL (≈ 1.92 µM) | MIC50 [10]: 7.3 ± 3.7 µg/mL (≈ 10.8 µM) | decrease in STD NMR signal intensity of compound on addition of GTPγS (GTP binding site of FtsZ; 0.5 equivalents GTPγS (625 μM), 1.25 mM compound, 12.5 μM FtsZ): ~50% | mode of binding relative to GTP/GTPγS (GTP binding site of FtsZ; listed as chrysophaentin 1): in a competitive manner; also recorded: bind competitively | mode of binding relative to GTP/GTPγS (GTP binding site of FtsZ; listed as compound 1): competitive inhibitor of GTP binding to FtsZ | GTP-dependent FtsZ polymerization and protofilament formation (TEM) (recombinant E. coli FtsZ [11]): polymerization and protofilament formation were inhibited; also recorded: fully inhibited polymerization and protofilament formation | zone of inhibition at 2 µg/disc ([12]; Enterococcus faecium, ATCC49032, at 2 μg/disk): 10 mm | Agar disk diffusion (μg/disk) E. faecium [12, 13]: 2 μg/disk
